*1 amine or outer side, *2 acyl side, *3 side chain or, on linkers, in order; H or OH if unused. Where a SMILES comes first, the peptide text is derived from it. Bridges are numbered along the chain shown (N, C = ends). Side-chain parts run from the residue outwards. The star is where a group is joined. C20 diacid = O=C(O)CCCCCCCCCCCCCCCCCCC(=O)*; C18 diacid = O=C(O)CCCCCCCCCCCCCCCCC(=O)*; γGlu = O=C(O)[C@H](CCC(=O)[*:2])N[*:1]; AEEA = NCCOCCOCC(=O)O
Columns and labels:
[1] = molecular target: T1, Amylin 3(a) receptor (human calcitonin receptor (CTa) and RAMP-3) (Homo sapiens, UniProt O60896+P30988); experiment: Luciferase assay (III), BHK Amylin 3(a)//CRE-luc cells; assay type: cell-based; settings: BHK cells with Amylin 3(a) receptor and CRE luciferase reporter, 4 hours incubation; read-out: Potency Luciferase
T1 construct: expressed in transfected cells; host or cells: BHK570 cells, stably transfected with a CRE-luciferase reporter
Method in brief: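 Read-out is CRE-driven luciferase luminescence, taken 30 min after LucLite addition at room temperature. Compounds were incubated 4 h at 37° C in assay medium (10% FBS, 10 mM Hepes, pH 7,4). The cell line is BHK570 co-transfected with human calcitonin receptor CTa and RAMP-3, seeded overnight before use.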

food intake = experiment: Pharmacological Assay (I) - efficacy testing on appetite, ad libitum fed rat model; assay type: in vivo, Sprague Dawley (SD) rats; settings: 30 nmol/kg vs vehicle, ad libitum fed rats, n=5-7, 0-48 hours
Source text: Assays Pharmacological Assay (I)—Experimental Protocol for Efficacy Testing on Appetite with an Amylin Derivative, Using an Ad Libitum Fed Rat Model. Sprague Dawley (SD) rats from Taconic Europe, Denmark are used for the experiments. The rats have a body weight 200-250 g at the start of experiment. The rats arrive at least 10-14 days before start of experiment to allow acclimatization to experimental settings. During this period the animals are handled at least 2 times. After arrival rats are housed individually for one week in a reversed light/dark phase (meaning that lights are off during daytime and on during nighttime) for two weeks. Since rats are normally active and eat their major part of their daily food intake during the dark period, rats are dosed in the morning right before lights are turned off. This set-up results in the lowest data variation and highest test sensitivity. The experiment is conducted in the rats' home cages and rats have free access to food and water throughout the acclimatization period and the experiment period. Each dose of derivative is tested in a group of 5-8 rats. A vehicle group of 6-8 rats is included in each set of testing. Rats are dosed once according to body weight with a 0.01-3 mg/kg solution administered intraperitoneally (ip), orally (po) or subcutaneously (sc). The time of dosing is recorded for each group. After dosing, the rats are returned to their home cages, where they then have access to food and water. The food consumption is recorded individually continuously by on-line registration or manually every hour for 7 hours, and then after 24 h and sometimes 48 h. At the end of the experimental session, the animals are euthanized. The individual data are recorded in Microsoft excel sheets. Outliers are excluded after applying the Grubbs statistical evaluation test for outliers, and the result is presented graphically using the GraphPad Prism program.

[2] = Assay (V) PK - determination of T½ in mini-pig; assay type: in vivo; settings: minipig, sc; terminal plasma half-life, subcutaneous, approx 2 nmol/kg, male Göttingen mini-pigs
Method in brief: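 Male Göttingen mini-pigs (5–12 months, 7–35 kg) got a single s.c. neck injection of approx 2 nmol/kg; plasma sampled via central venous catheter predose to 240 h (some to 288 h). Amylin measured by sandwich ELISA; T½ = ln 2/λz from non-compartmental analysis of individual profiles.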

T1 sequence (O60896 24-148): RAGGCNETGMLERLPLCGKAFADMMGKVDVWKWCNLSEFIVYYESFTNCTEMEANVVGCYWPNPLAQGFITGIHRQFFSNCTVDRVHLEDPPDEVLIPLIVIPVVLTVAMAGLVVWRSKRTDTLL
T1 sequence (P30988 25-474): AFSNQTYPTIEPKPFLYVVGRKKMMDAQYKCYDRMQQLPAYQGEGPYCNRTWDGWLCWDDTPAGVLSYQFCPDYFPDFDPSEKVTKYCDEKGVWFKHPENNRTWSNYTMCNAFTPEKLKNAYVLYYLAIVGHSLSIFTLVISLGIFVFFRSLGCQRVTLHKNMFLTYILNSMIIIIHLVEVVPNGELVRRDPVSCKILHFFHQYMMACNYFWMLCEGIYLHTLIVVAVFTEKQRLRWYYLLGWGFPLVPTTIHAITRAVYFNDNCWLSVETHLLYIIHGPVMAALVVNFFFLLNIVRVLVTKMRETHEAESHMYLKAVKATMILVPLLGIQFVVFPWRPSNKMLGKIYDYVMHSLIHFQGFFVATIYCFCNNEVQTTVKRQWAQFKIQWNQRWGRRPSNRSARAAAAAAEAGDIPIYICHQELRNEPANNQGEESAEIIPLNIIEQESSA

SMILES | EC50 [1] | food intake over a period of 48 hours (food intake) | half-life [2]
CC[C@H](C)[C@H](NC(=O)[C@@H]1CCCN1C(=O)CNC(=O)[C@H](Cc1ccccc1)NC(=O)[C@H](CC(N)=O)NC(=O)[C@H](CC(=O)O)NC(=O)[C@H](CO)NC(=O)[C@H](CO)NC(=O)[C@H](Cc1c[nH]cn1)NC(=O)[C@H](Cc1c[nH]cn1)NC(=O)[C@H](CC(C)C)NC(=O)[C@H](Cc1ccccc1)NC(=O)[C@H](CC(N)=O)NC(=O)[C@H](C)NC(=O)[C@H](CC(C)C)NC(=O)[C@H](CCCNC(=N)N)NC(=O)[C@H](CCC(N)=O)NC(=O)[C@@H](NC(=O)[C@H](C)NC(=O)[C@@H]1CSSC[C@H](NC(=O)[C@@H](N)CCCCN)C(=O)N[C@@H](CCCCNC(=O)COCCOCCNC(=O)[C@H](CCC(=O)O)NC(=O)[C@H](CCC(=O)O)NC(=O)CCCCCCCCCCCCCCCCCCC(=O)O)C(=O)N[C@@H]([C@@H](C)O)C(=O)N[C@@H](C)C(=O)N[C@@H]([C@@H](C)O)C(=O)N1)[C@@H](C)O)C(=O)N[C@@H](CC(C)C)C(=O)N1CCC[C@H]1C(=O)N1CCC[C@H]1C(=O)N[C@H](C(=O)N[C@@H](CC(N)=O)C(=O)N[C@H](C(=O)NCC(=O)N[C@@H](CO)C(=O)N[C@@H](CC(N)=O)C(=O)N[C@H](C(=O)N[C@@H](Cc1ccc(O)cc1)C(N)=O)[C@@H](C)O)C(C)C)[C@@H](C)O [Example 3, N-epsilon3-{2-[2-(2-{(S)-4-Carboxy-2-[(S)-4-carboxy-2-(19-carboxynonadecanoylamino)butyrylamino]butyrylamino}ethoxy)ethoxy]acetyl}-[Lys3,His17,Asp21]-pramlintide] (H-KCK([AEEA-Glu-Glu-C20 diacid])TATCATQRLANFLHHSSDNFGPILPPTNVGSNTY-NH2; disulfide 2-7) | 400 pM | effectively reducing food intake | 
CC[C@H](C)[C@H](NC(=O)[C@@H]1CCCN1C(=O)CNC(=O)[C@H](Cc1ccccc1)NC(=O)[C@H](CC(N)=O)NC(=O)[C@H](CC(N)=O)NC(=O)[C@H](CO)NC(=O)[C@H](CO)NC(=O)[C@H](Cc1c[nH]cn1)NC(=O)[C@H](Cc1c[nH]cn1)NC(=O)[C@H](CC(C)C)NC(=O)[C@H](Cc1ccccc1)NC(=O)[C@H](CC(N)=O)NC(=O)[C@H](C)NC(=O)[C@H](CC(C)C)NC(=O)[C@H](CCCNC(=N)N)NC(=O)[C@H](CCC(N)=O)NC(=O)[C@@H](NC(=O)[C@H](C)NC(=O)[C@@H]1CSSC[C@H](NC(=O)[C@H](CCCNC(=N)N)NC(=O)COCCOCCNC(=O)COCCOCCNC(=O)CC[C@H](NC(=O)CCCCCCCCCCCCCCCCC(=O)O)C(=O)O)C(=O)N[C@@H](CC(N)=O)C(=O)N[C@@H]([C@@H](C)O)C(=O)N[C@@H](C)C(=O)N[C@@H]([C@@H](C)O)C(=O)N1)[C@@H](C)O)C(=O)N[C@@H](CC(C)C)C(=O)N1CCC[C@H]1C(=O)N1CCC[C@H]1C(=O)N[C@H](C(=O)N[C@@H](CC(N)=O)C(=O)N[C@H](C(=O)NCC(=O)N[C@@H](CO)C(=O)N[C@@H](CC(N)=O)C(=O)N[C@H](C(=O)N[C@@H](Cc1ccc(O)cc1)C(N)=O)[C@@H](C)O)C(C)C)[C@@H](C)O [Example 45, N-alpha-[2-(2-{2-[2-(2-{2-[(S)-4-Carboxy-4-(17-carboxyheptadecanoylamino)butyrylamino]ethoxy}ethoxy)acetylamino]ethoxy}ethoxy)acetyl][Arg1,His17]-pramlintide] ({C18 diacid-γGlu-AEEA-AEEA}-RCNTATCATQRLANFLHHSSNNFGPILPPTNVGSNTY-NH2; disulfide 2-7) | 30 pM | effectively reducing food intake | 
CC[C@H](C)[C@H](NC(=O)[C@@H]1CCCN1C(=O)CNC(=O)[C@H](Cc1ccccc1)NC(=O)[C@H](CC(N)=O)NC(=O)[C@H](CC(N)=O)NC(=O)[C@H](CO)NC(=O)[C@H](CO)NC(=O)[C@H](Cc1c[nH]cn1)NC(=O)[C@H](Cc1c[nH]cn1)NC(=O)[C@H](CC(C)C)NC(=O)[C@H](Cc1ccccc1)NC(=O)[C@H](CC(N)=O)NC(=O)[C@H](C)NC(=O)[C@H](CC(C)C)NC(=O)[C@H](CCCNC(=N)N)NC(=O)[C@H](CCC(N)=O)NC(=O)[C@@H](NC(=O)[C@H](C)NC(=O)[C@@H]1CSSC[C@H](NC(=O)[C@H](Cc2c[nH]cn2)NC(=O)[C@H](Cc2c[nH]cn2)NC(=O)CC[C@H](NC(=O)CCCCCCCCCCCCCCCCC(=O)O)C(=O)O)C(=O)N[C@@H](CC(N)=O)C(=O)N[C@@H]([C@@H](C)O)C(=O)N[C@@H](C)C(=O)N[C@@H]([C@@H](C)O)C(=O)N1)[C@@H](C)O)C(=O)N[C@@H](CC(C)C)C(=O)N1CCC[C@H]1C(=O)N1CCC[C@H]1C(=O)N[C@H](C(=O)N[C@@H](CC(N)=O)C(=O)N[C@H](C(=O)NCC(=O)N[C@@H](CO)C(=O)N[C@@H](CC(N)=O)C(=O)N[C@H](C(=O)N[C@@H](Cc1ccc(O)cc1)C(N)=O)[C@@H](C)O)C(C)C)[C@@H](C)O [Example 31, N-alpha-[(S)-4-Carboxy-4-(17-carboxyheptadecanoylamino)butyryl]-His-[His1,His17]-pramlintide] ({C18 diacid-γGlu}-HHCNTATCATQRLANFLHHSSNNFGPILPPTNVGSNTY-NH2; disulfide 3-8) | 20 pM | effectively reducing food intake | 41 h
CC[C@H](C)[C@H](NC(=O)[C@@H]1CCCN1C(=O)CNC(=O)[C@H](Cc1ccccc1)NC(=O)[C@H](CC(N)=O)NC(=O)[C@H](CC(N)=O)NC(=O)[C@H](CO)NC(=O)[C@H](CO)NC(=O)[C@H](Cc1c[nH]cn1)NC(=O)[C@H](Cc1c[nH]cn1)NC(=O)[C@H](CC(C)C)NC(=O)[C@H](Cc1ccccc1)NC(=O)[C@H](CC(N)=O)NC(=O)[C@H](C)NC(=O)[C@H](CC(C)C)NC(=O)[C@H](CCCNC(=N)N)NC(=O)[C@H](CCC(N)=O)NC(=O)[C@@H](NC(=O)[C@H](C)NC(=O)[C@@H]1CSSC[C@H](NC(=O)[C@H](Cc2c[nH]cn2)NC(=O)[C@H](Cc2c[nH]cn2)NC(=O)COCCOCCNC(=O)CC[C@H](NC(=O)CCCCCCCCCCCCCCCCCCC(=O)O)C(=O)O)C(=O)N[C@@H](CC(N)=O)C(=O)N[C@@H]([C@@H](C)O)C(=O)N[C@@H](C)C(=O)N[C@@H]([C@@H](C)O)C(=O)N1)[C@@H](C)O)C(=O)N[C@@H](CC(C)C)C(=O)N1CCC[C@H]1C(=O)N1CCC[C@H]1C(=O)N[C@H](C(=O)N[C@@H](CC(N)=O)C(=O)N[C@H](C(=O)NCC(=O)N[C@@H](CO)C(=O)N[C@@H](CC(N)=O)C(=O)N[C@H](C(=O)N[C@@H](Cc1ccc(O)cc1)C(N)=O)[C@@H](C)O)C(C)C)[C@@H](C)O [Example 38, N-alpha-[2-(2-{2-[4-(S)-Carboxy-4-(19-carboxynonadecanoylamino)butyrylamino]ethoxy}ethoxy)acetyl]-His-[His1,His17]-pramlintide] ({C20 diacid-γGlu-AEEA}-HHCNTATCATQRLANFLHHSSNNFGPILPPTNVGSNTY-NH2; disulfide 3-8) | 100 pM | effectively reducing food intake | 
